The data set is described as follows: gradient 5% acetonitrile 3 min, to 50% in 2 min, to 85% in 15 min, held 3 min, 100 µL/min. The following applies: column: Zorbax Extend-C18 2.1 x 50 mm; eluents: water / acetonitrile, 0.1% formic acid. An outline of the steps:
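In both positive and negative ionization mode, a quadrupole time-of-flight mass spectrometer coupled to HPLC analyzed pure standards run in mixtures of ~100 molecules. The Zorbax Extend-C18 column (2.1 × 50 mm, 1.8 μm) was operated at 100 μL/min with water and acetonitrile, each containing 0.1% formic acid. The dead volume was 40 μL and the dwell volume 900 μL. Retention time came from adduct peaks that were computationally picked and individually inspected by hand.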
Compound `COc1cc(C2C(C(=O)N3CCCCC3)=C(C)NC3=C2C(=O)CCC3)ccc1OC(C)=O` (centres undefined) displayed an RP-LC retention time of 647 s.

Turning to `O=C(Cn1ccn2nc(-c3ccccc3)c(CO)c2c1=O)N1CCN(c2ccccc2)CC1`, the RP-LC retention time was 800 s.

As to `CCOC(=O)c1c(NC(=O)CSc2nnc(-c3cccnc3)o2)sc2c1CCC2`, the RP-LC retention time stood at 932 s.

In turn, `CC(C)OC(=O)CCC/C=C\C[C@@H]1[C@@H](CC[C@@H](O)CCc2ccccc2)[C@H](O)C[C@@H]1O` displayed an RP-LC retention time of 1020 s.

As to `CCOc1ccc(NC(=O)Cn2c(C)cc(-c3nnc(C4CCC4)o3)c2C)cc1`, the RP-LC retention time turned out to be 896 s.

In turn, `Cc1sc2ccn(C)c(=O)c2c1C(=O)NCC1CCCCC1` had an RP-LC retention time of 816 s.

Take `Cc1ccc(NC(=O)N2CCCC(C)(C(=O)NCc3ccccc3)C2)c(C)c1` (centres undefined): the RP-LC retention time stood at 924 s.

For `O=C(NCc1ccc2c(c1)CCN2C(=O)c1ccccc1)C1CCN(S(=O)(=O)N2CCCC2)CC1`, the RP-LC retention time turned out to be 829 s.

With `Cc1ccc2nc(CN3CCN(C(=O)NCCc4ccccc4)CC3)oc2c1`, the RP-LC retention time was determined as 677 s.

Consider `Cc1ccc(Cl)cc1NC(=O)N1CCc2nc(-c3ccc(F)cc3)ncc2C1`, for which the RP-LC retention time is 1030 s.

With `CC(C)(Oc1ccc(Cl)cc1)C(=O)NCCNc1cc(-n2cccn2)ncn1`, the RP-LC retention time stood at 814 s.

In turn, `Fc1ccc(C(OCCN2CCN(CCCc3ccccc3)CC2)c2ccc(F)cc2)cc1` came in with an RP-LC retention time of 957 s.

As to `CCn1nccc1C(=O)Nc1nnc(-c2ccsc2)o1`, the RP-LC retention time is 641 s.

The compound `O=C(NCc1ccc2c(c1)OCO2)C1CCN(C(=O)c2ccccc2F)CC1` yielded an RP-LC retention time of 719 s.

On to `CN1C(=O)c2cccnc2Sc2cc(C(=O)NCc3cccc(Cl)c3)ccc21`, for which the RP-LC retention time stood at 818 s.

`CCOC(=O)c1[nH]c(C)c(CCC(=O)N2CCC(C(=O)NCc3ccc(OC(C)C)cc3)CC2)c1C` had an RP-LC retention time of 850 s.

Consider `COc1cccc(-c2noc(C3CCCN3C(=O)Nc3ccc(OC)c(F)c3)n2)c1` (centres undefined), for which the RP-LC retention time worked out at 946 s.

`COc1ccc(-c2cc3c4nn(CC(=O)Nc5cccc(C)c5C)c(=O)n4ccn3n2)cc1` registered an RP-LC retention time of 840 s.

As for `Cc1nnc(SCC(=O)NCc2ccccc2)c2nn(-c3ccccc3)c(C)c12`, the RP-LC retention time turned out to be 643 s.

`Cc1ccc(CNC(=O)c2cccc(-c3cnc(N4CCCC4)nc3)c2)o1`: the RP-LC retention time was 817 s.

Regarding `CCCCNc1cc(C)nc2nc(-c3ccc(C(C)(C)C)cc3)nn12`, the RP-LC retention time was 1100 s.

The compound `CC1CCN(C(=O)c2cn(-c3cc(N4CCC(C)CC4)ncn3)cn2)CC1` returned an RP-LC retention time of 1030 s.

Compound `Cc1cc(C)c2[nH]c3c(c(=O)c2c1)CN(CC(=O)Nc1cccc(F)c1)CC3` yielded an RP-LC retention time of 640 s.

Take `COc1cc(OC)c(OC)cc1CN(C)CCc1ccccn1`: the RP-LC retention time was 593 s.

For the compound `CCCNc1nc(-c2ccc(Br)cc2)cs1`, the RP-LC retention time is 1000 s.

For `Cn1cnc(S(=O)(=O)N2CCC(C(=O)NCc3ccc(F)cc3)CC2)c1`, the RP-LC retention time was determined as 670 s.

Compound `O=C(NCc1ccc2c(c1)OCCCO2)c1cccs1` gave an RP-LC retention time of 791 s.

The compound `Cc1cc(Br)ccc1NC(=O)C1CCN(c2cc(=O)n(C)c(=O)n2C)CC1` had an RP-LC retention time of 745 s.

`c1ccc(OCc2nc3ccccc3n2CC2CCN(Cc3ccccn3)CC2)cc1`: the RP-LC retention time worked out at 559 s.

For the compound `Cc1cc(C)c(C)c(S(=O)(=O)NCC(=O)NCC2CCCO2)c1C` (centres undefined), the RP-LC retention time was 724 s.

Compound `O=C(Cc1ccc(-c2ccc(OCCN3CCOCC3)cc2)cn1)NCc1ccccc1` returned an RP-LC retention time of 621 s.

Compound `Cc1nn2c(CNC(=O)Cc3cccc(C(F)(F)F)c3)c(C)nc2s1` gave an RP-LC retention time of 679 s.

In the case of `CCc1nc(N)n(CC(=O)NCc2ccccc2Cl)c(=O)c1C`, the RP-LC retention time was found to be 616 s.

The compound `CCCN1CCN(C(=O)c2nc(N3CCCCC3)c3c(C)cc(C)nc3n2)CC1` had an RP-LC retention time of 566 s.

`CN(CC1CCOCC1)C(=O)Nc1ccc(Cl)cc1F` registered an RP-LC retention time of 726 s.

In turn, `COc1cc(=O)n2c(c1C(=O)Nc1cccc(Br)c1)CCCC2` registered an RP-LC retention time of 760 s.

`CCc1noc(NC(C)=O)c1-c1ccc(OC)c(S(=O)(=O)NCc2ccc(F)cc2)c1` gave an RP-LC retention time of 794 s.

For `Cn1c(=O)n(C)c2cc(CNCCc3ccc(F)cc3)ccc21`, the RP-LC retention time worked out at 609 s.

With `Cc1nn(C)c(C)c1CCN(C)C(=O)C1CCCCC(=O)N1` (centres undefined), the RP-LC retention time was found to be 570 s.

Turning to `Cc1[nH]c(C)c(S(=O)(=O)N2CCC(C(=O)N(C)C3CCCCC3)CC2)c1C(=O)N1CCCCC1`, the RP-LC retention time is 762 s.

In turn, `CCOc1ccccc1N1CC(c2nc3ccccc3n2CCN2CCOCC2)CC1=O` (centres undefined) yielded an RP-LC retention time of 610 s.

In the case of `O=C(Cc1nnc(-c2ccc3ncccc3c2)o1)NCc1ccc(Cl)cc1`, the RP-LC retention time came out at 721 s.

`Cc1noc2ncn(CC(=O)NCc3ccc(Cl)cc3)c(=O)c12` yielded an RP-LC retention time of 769 s.

The compound `COc1ccc(CNc2nccn(-c3ccc4c(c3)OCO4)c2=O)cc1OC` yielded an RP-LC retention time of 724 s.

Take `Cn1cc(-c2nc(C(=O)NC3CCCCCC3)cs2)c2cccnc21`: the RP-LC retention time stood at 1040 s.

The compound `COc1cccc(CNC(=O)C2(C)CCCN(C(=O)Nc3cc(Cl)c(OC)cc3OC)C2)c1` (centres undefined) displayed an RP-LC retention time of 900 s.

Take `CN(CCCNC(=O)c1sc2ncccc2c1-n1cccc1)Cc1ccccc1`: the RP-LC retention time is 662 s.

As to `CCc1ccccc1S(=O)(=O)NCc1c(-c2ccccc2)nc2sc(C)nn12`, the RP-LC retention time came to 940 s.

Consider `CC(=O)Nc1nsc(N2CCC(C(=O)N3CCN(c4ccc(F)cc4)CC3)CC2)n1`, for which the RP-LC retention time came out at 680 s.

In the case of `Cc1ccc(NC(=O)CSc2nc(N3CCCCC3)nc3ccccc23)cc1F`, the RP-LC retention time turned out to be 789 s.

Compound `Cc1ccn2cc(C(=O)NCC3CCCCC3)nc2c1` displayed an RP-LC retention time of 714 s.

For the compound `CCOC(=O)N1CCC(NC(=O)Cc2csc(Nc3cccc(Cl)c3)n2)CC1`, the RP-LC retention time came out at 771 s.

With `O=C1c2ccccc2C(=O)N1CCCCN(C(=O)c1cccs1)c1ccc(F)cc1F`, the RP-LC retention time was 951 s.

In the case of `COc1ccc(F)cc1-c1cc(N2CCN(C(=O)NCC(C)C)CC2)ncn1`, the RP-LC retention time came out at 645 s.

The compound `CC(C)c1ccc(NC(=O)CN2C(=O)C3CCCCN3c3ccc(S(=O)(=O)N(C)C)cc32)cc1` (centres undefined) returned an RP-LC retention time of 955 s.

As to `Cc1cc(Cl)ccc1S(=O)(=O)N1CCC2(CCC(CN3CCN(C)CC3)O2)CC1` (centres undefined), the RP-LC retention time came out at 642 s.

In turn, `Cc1ccc(CNC(=O)C2(C)CN(S(=O)(=O)c3ccccc3)CC(=O)N2C2CC2)cc1` (centres undefined) showed an RP-LC retention time of 783 s.

In turn, `Cc1cc2c(N3CCCC(C(=O)NCc4ccc(N5CCC(C)CC5)cc4)C3)nccc2s1` (centres undefined) displayed an RP-LC retention time of 592 s.

The compound `O=c1c2ccccc2c(-c2nc(-c3ccncc3)no2)cn1-c1cccc(Cl)c1` came in with an RP-LC retention time of 1020 s.

The record behind these values is the METLIN SMRT retention time set (Domingo-Almenara et al. 2019).
